# Molecular target: T1, human PF4 (Homo sapiens, UniProt P02776)
# T1 construct: PF4 is a 70 amino acid, lysine-rich 7.8 kDa platelet-specific protein; made in house; host or cells: Escherichia coli BL21DE3 pLysS (pT7-7) and/or Drosophila S2 cells
# T1 sequence (P02776 32-101): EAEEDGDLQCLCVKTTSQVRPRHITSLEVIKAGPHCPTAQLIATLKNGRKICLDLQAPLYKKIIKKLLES
# Assay: Inhibition of PF4 tetramer formation (BS3 cross-linking, SDS-PAGE)
# Assay type: biochemical
# Conditions: for inhibition at 3 µM: 3 μM inhibitor (column A); for inhibition at 3 µM / inhibition at 1 µM / inhibition at 5 µM / inhibition at 10 µM: read-out: % inhibition of PF4 tetramer formation at single concentration of inhibitor; for inhibition at 1 µM: 1 μM inhibitor; for inhibition at 5 µM: 5 μM inhibitor; for inhibition at 10 µM: 10 μM inhibitor (column A); for IC50: read-out: IC50 of PF4 tetramer formation inhibition
# Procedure, shortened: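 Recombinant human wild-type PF4 (E. coli-expressed, heparin-purified), 10 μg/ml in PBS, incubated with compound 15 min at 37° C or 60 min at room temperature, then cross-linked with 0.2 mM BS3 for 30 min at room temperature. Reducing 12% SDS-PAGE; bands quantified as % tetramer, trimer, dimer, monomer versus compound-free control.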
inhibition at 3 µM,inhibition at 1 µM,IC50,Structure (SMILES),inhibition at 5 µM,inhibition at 10 µM
–,–,2 µM,"O=C(CN1CCCC1=O)C1C(=O)c2ccc(S(=O)(=O)c3ccc4c(c3)C(=O)C(C(=O)CN3CCCC3=O)C4=O)cc2C1=O (stereo not drawn) [Example 184, 5-({1,3-dioxo-2-[2-(2-oxopyrrolidin-1-yl)acetyl]-2,3-dihydro-1H-inden-5-yl}sulfonyl)-2-[2-(2-oxopyrrolidin-1-yl)acetyl]-2,3-dihydro-1H-indene-1,3-dione]",87%,95%
9%,4%,–,"COCCOCCOCCNC(=O)C1C(=O)c2ccc(Oc3ccc4c(c3)C(=O)C(C(=O)NCCOCCOCCOC)C4=O)cc2C1=O (stereo not drawn) [Example 384, N-{2-[2-(2-methoxyethoxy)ethoxy]ethyl}-5-{[2-({2-[2-(2-methoxyethoxy)ethoxy]ethyl}carbamoyl)-1,3-dioxo-2,3-dihydro-1H-inden-5-yl]oxy}-1,3-dioxo-2,3-dihydro-1H-indene-2-carboxamide]",–,–
–,–,3.4 µM,CC[C@H](NC(=O)OCc1ccccc1)C(=O)C1C(=O)c2ccc(S(=O)(=O)c3ccc4c(c3)C(=O)C(C(=O)[C@H](CC)NC(=O)OCc3ccccc3)C4=O)cc2C1=O (stereo partly drawn) [Example 166],59%,84%
43%,23%,3 µM,"CSCC(=O)C1C(=O)c2ccc(Oc3ccc4c(c3)C(=O)C(C(=O)CSC)C4=O)cc2C1=O (stereo not drawn) [Example 280, 2-[2-(methylsulfanyl)acetyl]-5-({2-[2-(methylsulfanyl)acetyl]-1,3-dioxo-2,3-dihydro-1H-inden-5-yl}oxy)-2,3-dihydro-1H-indene-1,3-dione]",–,–
–,–,1.4 µM,"O=C(NCc1ccco1)C1C(=O)c2ccc(S(=O)(=O)c3ccc4c(c3)C(=O)C(C(=O)NCc3ccco3)C4=O)cc2C1=O (stereo not drawn) [Example 104, N-[(furan-2-yl)methyl]-5-[(2-{[(furan-2-yl)methyl]carbamoyl}-1,3-dioxo-2,3-dihydro-1H-inden-5-yl)sulfonyl]-1,3-dioxo-2,3-dihydro-1H-indene-2-carboxamide]",–,–
41%,26%,–,"COCC(=O)C1C(=O)c2ccc(S(=O)(=O)c3ccc4c(c3)C(=O)C(C(=O)COC)C4=O)cc2C1=O (stereo not drawn) [Example 377, 2-(2-methoxyacetyl)-5-{[2-(2-methoxyacetyl)-1,3-dioxo-2,3-dihydro-1H-inden-5-yl]sulfonyl}-2,3-dihydro-1H-indene-1,3-dione]",–,–
39%,18%,–,"O=C1c2ccc(S(=O)(=O)c3ccc4c(c3)C(=O)C(C(=O)[C@H]3CCCN3)C4=O)cc2C(=O)C1C(=O)[C@@H]1CCNC1 (stereo partly drawn) [Example 350, 5-({1,3-dioxo-2-[(3R)-pyrrolidine-3-carbonyl]-2,3-dihydro-1H-inden-5-yl}sulfonyl)-2-[(2R)-pyrrolidine-2-carbonyl]-2,3-dihydro-1H-indene-1,3-dione]",–,–

# Further lines, the molecule ahead of its results:
Structure (SMILES),inhibition at 3 µM,inhibition at 1 µM,IC50,inhibition at 5 µM,inhibition at 10 µM
"O=C1c2ccc(S(=O)(=O)c3ccc4c(c3)C(=O)C(C(=O)C3CCCS3(=O)=O)C4=O)cc2C(=O)C1C(=O)C1CCCS1(=O)=O (stereo not drawn) [Example 372, 2-(5-{[2-(1,1-dioxo-1λ^6-thiolane-2-carbonyl)-1,3-dioxo-2,3-dihydro-1H-inden-5-yl]sulfonyl}-1,3-dioxo-2,3-dihydro-1H-indene-2-carbonyl)-1λ^6-thiolane-1,1-dione]",30%,–,–,–,–
"O=C(c1ccc2c(c1)C(=O)C(C(=O)NC1CCS(=O)(=O)C1)C2=O)c1ccc2c(c1)C(=O)C(C(=O)NC1CCS(=O)(=O)C1)C2=O (stereo not drawn) [Example 361, N-(1,1-dioxo-1λ^6-thiolan-3-yl)-5-{2-[(1,1-dioxo-1λ^6-thiolan-3-yl)carbamoyl]-1,3-dioxo-2,3-dihydro-1H-indene-5-carbonyl}-1,3-dioxo-2,3-dihydro-1H-indene-2-carboxamide]",34%,9%,–,–,–
"CC(C)(C)OC(=O)N1CSC[C@@H]1C(=O)C1C(=O)c2ccc(S(=O)(=O)c3ccc4c(c3)C(=O)C(C(=O)[C@H]3CSCN3C(=O)OC(C)(C)C)C4=O)cc2C1=O (stereo partly drawn) [Example 221, tert-butyl (4S)-4-[5-({2-[(4S)-3-[(tert-butoxy)carbonyl]-1,3-thiazolidine-4-carbonyl]-1,3-dioxo-2,3-dihydro-1H-inden-5-yl}sulfonyl)-1,3-dioxo-2,3-dihydro-1H-indene-2-carbonyl]-1,3-thiazolidine-3-carboxylate]",–,–,2.3 µM,92%,97%
"COCCOCC(=O)C1C(=O)c2ccc(C(=O)c3ccc4c(c3)C(=O)C(C(=O)COCCOC)C4=O)cc2C1=O (stereo not drawn) [Example 395, 2-[2-(2-methoxyethoxy)acetyl]-5-{2-[2-(2-methoxyethoxy)acetyl]-1,3-dioxo-2,3-dihydro-1H-indene-5-carbonyl}-2,3-dihydro-1H-indene-1,3-dione]",13%,2%,–,–,–
"O=C(c1ccc2c(c1)C(=O)C(C(=O)C1CCCS1(=O)=O)C2=O)c1ccc2c(c1)C(=O)C(C(=O)C1CCCS1(=O)=O)C2=O (stereo not drawn) [Example 371, 2-{5-[2-(1,1-dioxo-1λ^6-thiolane-2-carbonyl)-1,3-dioxo-2,3-dihydro-1H-indene-5-carbonyl]-1,3-dioxo-2,3-dihydro-1H-indene-2-carbonyl}-1λ^6-thiolane-1,1-dione]",11%,7%,–,–,–
"O=C(Cc1ccccc1)C1C(=O)c2ccc(S(=O)(=O)c3ccc4c(c3)C(=O)C(C(=O)Cc3ccccc3)C4=O)cc2C1=O (stereo not drawn) [Example 137, 5-{[1,3-dioxo-2-(2-phenylacetyl)-2,3-dihydro-1H-inden-5-yl]sulfonyl}-2-(2-phenylacetyl)-2,3-dihydro-1H-indene-1,3-dione]",–,–,6 µM,80%,85%
"O=C(c1ccc2c(c1)C(=O)C(Br)C2=O)c1ccc2c(c1)C(=O)C(Br)C2=O (stereo not drawn) [Example 244, 2-bromo-5-(2-bromo-1,3-dioxo-2,3-dihydro-1H-indene-5-carbonyl)-2,3-dihydro-1H-indene-1,3-dione]",43%,21%,–,–,–
"COCCC(=O)C1C(=O)c2ccc(S(=O)(=O)c3ccc4c(c3)C(=O)C(C(=O)CCOC)C4=O)cc2C1=O (stereo not drawn) [Example 177, 2-(3-methoxypropanoyl)-5-{[2-(3-methoxypropanoyl)-1,3-dioxo-2,3-dihydro-1H-inden-5-yl]sulfonyl}-2,3-dihydro-1H-indene-1,3-dione]",–,–,–,0%,17%
"CCC(=O)C1C(=O)c2ccc(S(=O)(=O)c3ccc4c(c3)C(=O)C(C(=O)CC)C4=O)cc2C1=O (stereo not drawn) [Example 325, 5-[(1,3-dioxo-2-propanoyl-2,3-dihydro-1H-inden-5-yl)sulfonyl]-2-propanoyl-2,3-dihydro-1H-indene-1,3-dione]",–,–,–,–,34%
"C=CCNC(=O)C1C(=O)c2ccc(C(=O)c3ccc4c(c3)C(=O)C(C(=O)NCC=C)C4=O)cc2C1=O (stereo not drawn) [Example 65, 5,5′-carbonylbis(n-allyl-1,3-dioxo-2,3-dihydro-1h-indene-2-carboxamide)]",–,–,–,50%,71%
"CC(C)(C)OC(=O)N1CCC[C@H]1C(=O)C1C(=O)c2ccc(Oc3ccc4c(c3)C(=O)C(C(=O)[C@@H]3CCCN3C(=O)OC(C)(C)C)C4=O)cc2C1=O (stereo partly drawn) [Example 193, tert-butyl (2S)-2-[5-({2-[(2S)-1-[(tert-butoxy)carbonyl]pyrrolidine-2-carbonyl]-1,3-dioxo-2,3-dihydro-1H-inden-5-yl}oxy)-1,3-dioxo-2,3-dihydro-1H-indene-2-carbonyl]pyrrolidine-1-carboxylate]",–,–,–,37%,40%
"Cc1ccc(NC(=O)C2C(=O)c3ccc(C(=O)c4ccc5c(c4)C(=O)C(C(=O)Nc4ccc(C)cc4)C5=O)cc3C2=O)cc1 (stereo not drawn) [Example 91, N-(4-methylphenyl)-5-{2-[(4-methylphenyl)carbamoyl]-1,3-dioxo-2,3-dihydro-1H-indene-5-carbonyl}-1,3-dioxo-2,3-dihydro-1H-indene-2-carboxamide]",–,–,–,20%,35%
"CCCCC(=O)C1C(=O)c2ccc(S(=O)(=O)c3ccc4c(c3)C(=O)C(C(=O)CCCC)C4=O)cc2C1=O (stereo not drawn) [Example 154, 5-[(1,3-dioxo-2-pentanoyl-2,3-dihydro-1H-inden-5-yl)sulfonyl]-2-pentanoyl-2,3-dihydro-1H-indene-1,3-dione]",–,–,1.2 µM,100%,100%
"CC(C)OC/C(O)=C1/C(=O)c2ccc(C(=O)c3ccc4c(c3)C(=O)/C(=C(/O)COC(C)C)C4=O)cc2C1=O [Example 380, 5-{1,3-dioxo-2-[2-(propan-2-yloxy)acetyl]-2,3-dihydro-1H-indene-5-carbonyl}-2-[2-(propan-2-yloxy)acetyl]-2,3-dihydro-1H-indene-1,3-dione]",30%,17%,–,–,–
"N[C@@H](C(=O)C1C(=O)c2ccc(S(=O)(=O)c3ccc4c(c3)C(=O)C(C(=O)[C@H](N)c3ccccc3)C4=O)cc2C1=O)c1ccccc1 (stereo partly drawn) [Example 172, 2-[(2R)-2-amino-2-phenylacetyl]-5-({2-[(2R)-2-amino-2-phenylacetyl]-1,3-dioxo-2,3-dihydro-1H-inden-5-yl}sulfonyl)-2,3-dihydro-1H-indene-1,3-dione]",–,–,1.6 µM,81%,93%

# — US20250281424A1 (New York Blood Center, Inc, priority 2020, published 2025)
